Reference: ChEMBL document CHEMBL6134908, “Inverse Agonists of Peroxisome Proliferator-Activated Receptor Gamma: Advances and Prospects in Cancer Treatment” (J Med Chem, 2025)

Tests used:
[1] = target: T1, Peroxisome proliferator-activated receptor gamma (Homo sapiens) (UniProt P37231); test: Inhibition of PPRAgamma in HEK293 cells assessed as […] in FABP4 mRNA expression at 100 nM relative to control; type: cell-based
T1 sequence (whole entry): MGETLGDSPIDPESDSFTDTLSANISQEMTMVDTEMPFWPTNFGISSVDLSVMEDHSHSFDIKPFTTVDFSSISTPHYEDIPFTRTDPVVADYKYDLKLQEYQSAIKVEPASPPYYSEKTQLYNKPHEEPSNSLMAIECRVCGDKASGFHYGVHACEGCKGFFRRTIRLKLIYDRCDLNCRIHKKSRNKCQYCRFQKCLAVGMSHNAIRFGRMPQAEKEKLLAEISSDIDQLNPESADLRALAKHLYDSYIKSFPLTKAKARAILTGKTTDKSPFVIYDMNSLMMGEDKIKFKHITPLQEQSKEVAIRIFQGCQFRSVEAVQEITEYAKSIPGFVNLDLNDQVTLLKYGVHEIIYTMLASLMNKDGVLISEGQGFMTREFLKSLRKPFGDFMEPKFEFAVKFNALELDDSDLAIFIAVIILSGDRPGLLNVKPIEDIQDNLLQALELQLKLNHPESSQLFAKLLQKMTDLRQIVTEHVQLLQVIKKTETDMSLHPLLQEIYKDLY

[2] = Induction of ANGPTL4 mRNA expression in human HT1197 cells

Row | inhibition [1] | Compound | EC50 [2]
1 | 95% | N#Cc1ccc(Cl)c(-c2cc(=O)c3c(F)cc(F)cc3[nH]2)c1 | –
2 | – | N#Cc1cc(-c2cc(=O)c3c(F)cc(F)cc3[nH]2)c(Cl)cn1 | 0.14 nM
